Molecular target: Plasma kallikrein (Homo sapiens, UniProt P03952)
Experiment: Inhibitory Activity Assay: Plasma Kallikrein: The example compounds were evaluated for inhibition of the human activated kallikrein enzyme in two formats of an assay employing a fluorogenic peptide substrate. In one assay format, the concentrations of reagents were as follows: 20 mM Tris pH 7.5, 1 mM EDTA, 150 mM sodium chloride, 0.1% PEG-400, 0.1% Triton X-100, 500 pM activated kallikrein enzyme, 300 uM Pro-Phe-Arg-7-amido-4-methylcoumarin substrate. Prior to reaction initiation with substrate, enzyme and inhibitors were preincubated for 30 min at room temperature. After initiation with substrate, reactions were incubated for 10 min at room temperature and fluorescence emission at 460 nm from 380 nm excitation measured with a microplate reader. In another assay format, the concentrations of reagents were as follows: 20 mM Tris pH 7.5, 1 mM EDTA, 150 mM sodium chloride, 0.1% PEG-400, 0.1% Triton X-100, 5 pM activated kallikrein enzyme, 300 uM Pro-Phe-Arg-7-amido-4-methylcoumarin substrate. Prior to reaction initiation with substrate, enzyme and inhibitors were preincubated for 30 min at room temperature. After initiation with substrate, reactions were incubated for 18 hr at room temperature and fluorescence emission at 460 nm from 380 nm excitation measured with a microplate reader.

Plasma kallikrein, sequence (P03952 20-390 limits assumed): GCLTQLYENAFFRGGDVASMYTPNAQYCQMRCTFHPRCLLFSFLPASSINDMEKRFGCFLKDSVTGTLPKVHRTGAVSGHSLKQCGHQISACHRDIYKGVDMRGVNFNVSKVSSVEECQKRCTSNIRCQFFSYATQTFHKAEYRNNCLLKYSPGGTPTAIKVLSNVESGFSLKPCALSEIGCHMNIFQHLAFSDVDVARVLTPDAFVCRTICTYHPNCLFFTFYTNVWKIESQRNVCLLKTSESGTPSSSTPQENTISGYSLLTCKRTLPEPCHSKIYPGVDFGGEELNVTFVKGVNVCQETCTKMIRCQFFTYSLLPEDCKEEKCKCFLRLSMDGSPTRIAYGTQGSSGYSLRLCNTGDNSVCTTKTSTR
Plasma kallikrein, sequence (P03952 391-638 limits assumed): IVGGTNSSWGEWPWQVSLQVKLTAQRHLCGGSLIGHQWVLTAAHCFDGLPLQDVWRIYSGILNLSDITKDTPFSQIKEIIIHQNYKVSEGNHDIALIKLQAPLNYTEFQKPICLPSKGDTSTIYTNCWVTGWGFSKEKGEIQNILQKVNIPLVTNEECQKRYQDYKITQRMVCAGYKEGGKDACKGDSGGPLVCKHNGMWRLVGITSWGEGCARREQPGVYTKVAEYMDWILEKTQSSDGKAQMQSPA

CNC(=O)[C@H](CCCCNC(=N)N)NC(=O)c1csc([C@@H]2C[C@@H](N)CN2C(=O)c2ccc3cc(Cl)ccc3n2)n1
EC50: < 100 nM

Source: ChEMBL document CHEMBL5728812, “Inhibitors of Plasma Kallikrein and uses thereof” (2021)
